Test results taken from patent US7989420B2, “Smooth muscle relaxation” (New York Medical College, priority 2006, dated 2011).

Experiments:
[1] = system: bovine pulmonary arteries (BPA); experiment: Isometric force generation to serotonin (5-HT) in organ cultured BPA rings; assay type: cell-based; settings: 24 h organ culture
Procedure: Organoid Culture Isolated Arteries for Heme Modulation. Intralobar BPA were isolated from slaughterhouse-derived bovine calf lungs, cleaned from surrounding tissue, and placed in 37° C. Dulbecco's Modified Eagle Medium (DMEM) containing 10% fetal bovine serum, penicillin, streptomycin, and fungizone (complete media). The arteries were isolated and cut into rings ˜2 mm in diameter and width, and the endothelium was removed by gentle rubbing of the lumen. Various compounds (i.e. ALA, FeSO4(Fe), deferoxamine) were added as described in the Results to various experimental groups, and these arteries were organ cultured overnight for 24 h in complete media in a 37° C.-5% CO2 incubator. Preliminary experiments on the time course for detection protoporphyrin IX accumulation and the effects of organ culture with doses of ALA in the 10-100 μM concentration range on contractile function, and minimizing the duration of organ culture were considerations that contributed to selecting the 24 h culture period used in this study.
Studies on the Regulation of Contractile Function. Following the overnight incubation, arterial rings were mounted on wire hooks attached to Grass (FT03) force displacement transducers for measurement of changes in isometric force. Tension was adjusted to 5 g, which is the optimal passive force for maximal contraction. Changes in force were recorded on a Grass polygraph (model 7), while vessels were incubated in 10-ml baths (Metro Scientific), which were individually thermostated (37° C.) in Krebs buffer gassed with 21% O2-5% CO2 (balance N2) in the absence of compounds used to modulate BPA protoporphyrin IX levels. Arteries were incubated for 1 h during which passive tension was adjusted to maintain 5 grams. The vessels were then depolarized with Krebs containing 123 mM KCl (High K^+) in place of NaCl, followed by re-equilibration with Krebs, prior to exposure to the experimental protocols. Following the wash with Krebs buffer after the High K^+ treatment, and a 30 min equilibration, BPA were then contracted with serotonin (5-HT) in a dose dependent manner to determine the response to this contractile agent. In some experiments, BPA were pretreated with the sGC inhibitor, 10 μM ODQ, for 15 min before contraction with serotonin. The effects of ODQ on relaxation to NO was determined by first contracting organ cultured control and ODQ-treated BPA with 1 μM 5-HT (after the initial exposure to increasing concentrations of 5-HT and a 30 min equilibration in Krebs).

[2] = biological target: T1, sGC (Bos taurus, UniProt P16068); experiment: sGC activity in BPA homogenates (cGMP by ELISA); assay type: biochemical, bovine; parameters: Guanylate cyclase activity of homogenates of BPA was measured by enzyme immunoassay; from tissue; host or cells: BPA (pulmonary artery rings, organ cultured) homogenate; settings: organ culture with 100 μM ALA and/or 100 μM Fe
T1 sequence (P16068 1-619): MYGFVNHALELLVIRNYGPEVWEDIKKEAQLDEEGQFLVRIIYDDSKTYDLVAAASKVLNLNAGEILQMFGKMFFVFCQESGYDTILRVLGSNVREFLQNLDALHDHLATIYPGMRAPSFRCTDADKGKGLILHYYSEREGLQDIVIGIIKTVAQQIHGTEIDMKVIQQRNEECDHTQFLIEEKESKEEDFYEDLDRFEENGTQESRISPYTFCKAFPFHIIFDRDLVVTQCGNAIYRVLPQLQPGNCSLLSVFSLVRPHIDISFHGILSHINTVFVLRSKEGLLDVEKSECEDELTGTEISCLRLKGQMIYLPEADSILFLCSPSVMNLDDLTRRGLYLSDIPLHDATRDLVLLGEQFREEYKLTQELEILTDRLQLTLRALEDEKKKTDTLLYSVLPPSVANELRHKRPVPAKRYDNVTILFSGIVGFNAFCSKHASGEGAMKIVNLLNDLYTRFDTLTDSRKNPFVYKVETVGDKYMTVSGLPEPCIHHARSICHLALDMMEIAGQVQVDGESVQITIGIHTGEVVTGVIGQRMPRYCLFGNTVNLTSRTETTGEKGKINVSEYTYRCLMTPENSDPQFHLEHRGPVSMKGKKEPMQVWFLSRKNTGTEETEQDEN
T1 sequence (P19687 1-691 partner): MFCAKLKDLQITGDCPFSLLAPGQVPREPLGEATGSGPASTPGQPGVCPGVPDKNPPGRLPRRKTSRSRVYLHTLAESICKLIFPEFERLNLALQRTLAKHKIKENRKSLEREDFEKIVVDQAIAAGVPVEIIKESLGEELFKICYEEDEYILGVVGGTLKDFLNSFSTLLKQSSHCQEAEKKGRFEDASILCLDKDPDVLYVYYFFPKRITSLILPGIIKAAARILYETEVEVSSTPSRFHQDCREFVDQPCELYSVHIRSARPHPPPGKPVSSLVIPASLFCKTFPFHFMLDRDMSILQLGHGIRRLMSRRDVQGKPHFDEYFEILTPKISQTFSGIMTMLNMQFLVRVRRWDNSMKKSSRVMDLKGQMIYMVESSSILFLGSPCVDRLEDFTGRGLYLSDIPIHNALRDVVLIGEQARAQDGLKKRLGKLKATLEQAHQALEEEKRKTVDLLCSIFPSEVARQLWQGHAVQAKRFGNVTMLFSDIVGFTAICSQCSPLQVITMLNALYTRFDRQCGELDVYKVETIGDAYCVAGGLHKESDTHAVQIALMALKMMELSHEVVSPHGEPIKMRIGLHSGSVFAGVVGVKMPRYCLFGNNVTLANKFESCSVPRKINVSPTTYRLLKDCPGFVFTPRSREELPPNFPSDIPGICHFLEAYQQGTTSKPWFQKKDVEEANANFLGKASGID
Procedure: Guanylate cyclase activity of homogenates of BPA was measured by enzyme immunoassay of the amounts of cGMP generated. Briefly, BPA were pulverized in liquid nitrogen and homogenized in MOPS buffer 1:3 wt to buffer ratio at 5° C. Reaction mixture (0.2 ml final volume) contained 20 mM MOPS-KOH (pH 7.4), 0.1 mM GTP, 2 mM MgCl2, 0.3 mM of the phosphodiesterase inhibitor 3-Isobutyl-1-methylxanthine, a GTP-regenerating system consisting of 10 mM phosphocreatine and 150 U/ml creatine phosphokinase, and 0.1 ml of homogenate (11, 15), and test agents, as indicated. Assays of sGC activity were initiated by the addition of BPA homogenate. Incubations were conducted for 10 min at 37° C., and they were terminated by the addition of 0.1 ml of preheated 12 mM EDTA. This was followed by boiling the assay mixtures for 10 min and a subsequent addition of 5% trichloroacetic acid. The precipitate was removed by centrifugation and the supernatant was washed three times with water-saturated diethyl ether. Residual ether was removed by incubation at 70° C. for 5 minutes, prior to measurement of cGMP by ELISA (Cayman), as described in the manual supplied by manufacturer of the ELISA kit.

SMILES: NCC(=O)CCC(=O)O [ALA, δ-aminolevulinic acid]
- force generation to 5-HT ([1]; 10 μM ALA, appeared to depress force at higher doses of 5-HT): did not reach statistical significance
- decrease in force generation to 5-HT ([1]; 50 μM and 100 μM ALA): 50-90%
- force generation to 5-HT ([1]; 100 μM ALA, 0.1-10 μM 5-HT in the absence of ALA): markedly inhibit force generation
- BPA homogenate sGC activity [2]: increase in BPA homogenate sGC activity
